Results on 1 compound are retold here after patent publication US20080003311A1, “Rosmarinus extracts for inhibiting/treating skin aging” (SOCIETE L'OREAL, S.A., priority 1999, published 2008).

The experiment has as its system normal human dermal fibroblasts. The experiment is described as follows: Incorporation of radioactive proline (collagen synthesis) into cultures of normal human dermal fibroblasts. The format is cell-based. Here is the method:
The study was conducted by measuring the incorporation of radioactive proline into cultures of normal human dermal fibroblasts. The fibroblast cultures were prepared according to conventional cell culture methods, i.e., in MEM/M199 medium marketed by Gibco in the presence of sodium bicarbonate (1.87 mg/ml), of L-glutamine (2 mM), of penicillin (50 IU/ml) and of 10% of fetal calf serum (Gibco). The assay was carried out on cell cultures at 80% confluency, in a 24-well plate. […] The labeling with tritiated proline (L-[2,3-^3H]-proline sold by Amersham, 33 (μCi/ml) was carried out for 24 hours. The level of tritiated proline incorporated was measured at the end of the assay by acid precipitation of the proteins on filters and liquid scintillation counting. […] A positive control (vitamin C at 20 (g/ml) known to stimulate collagen synthesis was introduced into the assay as a reference. The results of this assay, expressed as percentages of activation, are reported in the following Table I: […]

Turning to `O=C1O[C@H]([C@@H](O)CO)C(O)=C1O` [Vitamin C], for the setting “vitamin C at 20 (g/ml, positive control), untreated cells 7498 cpm”, the “cpm (tritiated proline incorporated)” value stood at 13091 cpm. In addition, the “percentage of activation of proline incorporation” value (vitamin C at 20 (g/ml, versus untreated cells)) came out at 75%.
